# ChEMBL document CHEMBL4813920, “Metronidazole-conjugates: A comprehensive review of recent developments towards synthesis and medicinal perspective” (Eur J Med Chem, 2021)
# How the values were obtained:
# Giardia intestinalis [1] = assay: Antigiardial activity against Giardia intestinalis WB ATCC 30957 by trypan blue staining based assay; format: functional, organism-based; settings: Giardia duodenalis
# Clostridium sporogenes = assay: Antimicrobial activity against Clostridium sporogenes ATCC 19404 incubated for 24 hrs by broth microdilution method; format: functional
# Entamoeba histolytica = assay: Antiamoebic activity against Entamoeba histolytica HK9 ATCC 30015 by trypan blue staining based assay; format: functional, organism-based
# Pancreatic alpha-amylase = target: T1, Pancreatic alpha-amylase (Sus scrofa, UniProt P00690); assay: Inhibition of porcine pancreatic alpha-amylase using 1% starch as substrate preincubated for 10 mins followed by substrate addition and measured after 10 mins by absorbance method
# T1 sequence (P00690 whole entry): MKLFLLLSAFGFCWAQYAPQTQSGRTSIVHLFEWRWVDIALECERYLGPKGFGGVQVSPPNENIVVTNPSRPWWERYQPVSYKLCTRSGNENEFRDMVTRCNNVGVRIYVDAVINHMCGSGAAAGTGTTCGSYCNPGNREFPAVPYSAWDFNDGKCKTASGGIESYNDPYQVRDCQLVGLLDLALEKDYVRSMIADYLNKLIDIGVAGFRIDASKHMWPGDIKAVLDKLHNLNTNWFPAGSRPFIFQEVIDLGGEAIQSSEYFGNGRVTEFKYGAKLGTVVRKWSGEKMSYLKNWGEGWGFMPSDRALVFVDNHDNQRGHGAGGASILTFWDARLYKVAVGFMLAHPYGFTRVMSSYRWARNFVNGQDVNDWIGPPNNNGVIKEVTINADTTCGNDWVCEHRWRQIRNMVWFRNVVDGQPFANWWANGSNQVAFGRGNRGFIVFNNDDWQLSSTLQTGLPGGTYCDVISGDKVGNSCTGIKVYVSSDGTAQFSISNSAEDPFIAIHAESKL
# Leishmania braziliensis = assay: Antileishmanial activity against promastigote form of Leishmania braziliensis MHOM/BR/75/M2903 measured for 7 days by cell counting method; format: functional; settings: MHOM/BR/75/M2903, 168 h, time 7 day
# Leishmania mexicana = assay: Antileishmanial activity against promastigote form of Leishmania mexicana MHOM/BZ/82/Bel21 measured for 7 days by cell counting method; format: functional; settings: MHOM/BZ/82/Bel21, 168 h, time 7 day
# Carbonic anhydrase 2 = Carbonic anhydrase 2 (Homo sapiens, UniProt P00918); assay: Inhibition of recombinant human carbonic anhydrase 2 preincubated with enzyme for 15 mins by phenol red dye based stopped flow CO2 hydration assay
# Carbonic anhydrase 9 = Carbonic anhydrase 9 (Homo sapiens, UniProt Q16790); assay: Inhibition of recombinant human carbonic anhydrase 9 preincubated with enzyme for 15 mins by phenol red dye based stopped flow CO2 hydration assay
# Staphylococcus aureus [2] = assay: Antibacterial activity against Staphylococcus aureus ATCC 6538 incubated for 24 hrs by two fold serial dilution method; format: functional
# [3] = Acute oral toxicity in mouse assessed as behavioral changes measured once daily for 14 days; settings: in vivo, time 14 day
# [4] = Inhibition of Escherichia coli N-terminal His-tagged FabH expressed in Escherichia coli BL21(DE3) by liquid scintillation counting method
# Pseudomonas aeruginosa [5] = assay: Antibacterial activity against Pseudomonas aeruginosa ATCC 13525 incubated for 24 hrs by two fold serial dilution method; format: functional
# Bacillus spizizenii [6] = assay: Antibacterial activity against Bacillus subtilis ATCC 6633 incubated for 24 hrs by two fold serial dilution method; format: functional
# [7] = Acute oral toxicity in mouse assessed as signs of gross toxicity measured once daily for 14 days; settings: in vivo, time 14 day
# Escherichia coli [8] = assay: Antibacterial activity against Escherichia coli ATCC 35218 incubated for 24 hrs by two fold serial dilution method; format: functional
# [9] = Acute oral toxicity in mouse assessed as induction of mortality measured once daily for 14 days; settings: in vivo, time 14 day
# Staphylococcus aureus [10] = assay: Antibacterial activity against Staphylococcus aureus ATCC 6538P incubated for 24 hrs by broth microdilution method; format: functional
# Escherichia coli [11] = assay: Antibacterial activity against Escherichia coli ATCC 8739 incubated for 24 hrs by broth microdilution method; format: functional
# Bacillus spizizenii [12] = assay: Antibacterial activity against Bacillus subtilis ATCC 6633 by MH media dilution method; format: functional
# Pseudomonas aeruginosa [13] = assay: Antibacterial activity against Pseudomonas aeruginosa ATCC 13525 by MH media dilution method; format: functional
# Staphylococcus aureus [14] = assay: Antibacterial activity against Staphylococcus aureus ATCC 6538 by MH media dilution method; format: functional
# Escherichia coli [15] = assay: Antibacterial activity against Escherichia coli ATCC 35218 by MH media dilution method; format: functional
# MDA-MB-231 = assay: Antiproliferative activity against human MDA-MB-231 cells after 24 hrs by MTT assay; format: functional, cell-based; settings: MDA-MB-231, 24 h
# [16] = Selectivity index, ratio of CC50 for African green monkey Vero cells to IC50 for antigiardial activity against Giardia intestinalis MSS:0696:1; format: toxicity; settings: read-out: Ratio CC50/IC50
# Trichomonas vaginalis = assay: Anti-trichomonas activity against Trichomonas vaginalis GT3 incubated for 48 hrs; format: functional, organism-based; settings: GT3, 48 h
# [17] = Selectivity index, ratio of CC50 for African green monkey Vero cells to IC50 for antigiardial activity against Trichomonas vaginalis GT3; format: toxicity; settings: read-out: Ratio CC50/IC50
# Giardia intestinalis [18] = assay: Antigiardial activity against Giardia intestinalis MSS:0696:1 incubated for 48 hrs; format: functional, organism-based; settings: Giardia duodenalis, MSS:0696:1, 48 h
# HeLa = assay: Antiproliferative activity against human Hela cells incubated for 24 to 48 hrs by CCK8 assay; format: functional, cell-based
# A549 = assay: Antiproliferative activity against human A549 cells incubated for 24 to 48 hrs by CCK8 assay; format: functional, cell-based
# U-251 = assay: Antiproliferative activity against human U-251 cells incubated for 24 to 48 hrs by CCK8 assay; format: functional, cell-based
# HepG2 = assay: Antiproliferative activity against human HepG2 cells incubated for 24 to 48 hrs by CCK8 assay; format: functional, cell-based
compound,measurement,setting,value
COc1ccc(-n2c(SCCn3c([N+](=O)[O-])cnc3C)nnc2-c2cccnc2)cc1,IC50,Giardia intestinalis [1],1.78 µM
same,MIC,Clostridium sporogenes,17.8 µM
same,IC50,Entamoeba histolytica,0.48 µM
Cc1cccc(COCCn2c([N+](=O)[O-])cnc2C)c1,IC50,Pancreatic alpha-amylase,0.38 µM
Cc1ncc([N+](=O)[O-])n1CCOCc1ccc2ccccc2c1,IC50,Pancreatic alpha-amylase,1.66 µM
Cc1ncc([N+](=O)[O-])n1CCOCc1ccc(F)cc1,IC50,Pancreatic alpha-amylase,< 2.98 µM
Cc1ncc([N+](=O)[O-])n1CCOCc1ccc[nH]1,IC50,Pancreatic alpha-amylase,< 2.98 µM
Cc1ncc([N+](=O)[O-])n1CCOCc1ccncc1,IC50,Pancreatic alpha-amylase,< 2.98 µM
Cc1ncc([N+](=O)[O-])n1CCOCc1cccc(Cl)c1,IC50,Pancreatic alpha-amylase,< 2.98 µM
Cc1ncc([N+](=O)[O-])n1CCSCO,LC50,Leishmania braziliensis,950 µM
same,LC50,Leishmania mexicana,2250 µM
Cc1ncc([N+](=O)[O-])n1CCOCc1ccc(C#N)cc1,IC50,Pancreatic alpha-amylase,< 2.98 µM
COc1cccc(COCCn2c([N+](=O)[O-])cnc2C)c1,IC50,Pancreatic alpha-amylase,< 2.98 µM
Cc1ncc([N+](=O)[O-])n1CCOCc1ccccc1Cl,IC50,Pancreatic alpha-amylase,< 2.98 µM
Cc1ncc([N+](=O)[O-])n1CCOc1ccc(/C=N\c2ccc(S(=O)(=O)NC(=N)N)cc2)cc1,IC50,Carbonic anhydrase 2,0.07 µM
same,IC50,Carbonic anhydrase 9,0.135 µM
Cc1ncc([N+](=O)[O-])n1CCOCc1ccc(F)cc1Br,IC50,Pancreatic alpha-amylase,< 2.98 µM
Cc1ccnc(NS(=O)(=O)c2ccc(/N=C/c3ccc(C(=O)OCCn4c([N+](=O)[O-])cnc4C)cc3)cc2)n1,MIC,Staphylococcus aureus [2],12.5 µg/mL
same,LD50 at 336 h,[3],> 5000 mg/kg
same,IC50,[4],5.59 µM
same,MIC,Pseudomonas aeruginosa [5],12.5 µg/mL
same,MIC,Bacillus spizizenii [6],6.25 µg/mL
same,LD50 at 336 h,[7],> 5000 mg/kg
same,MIC,Escherichia coli [8],3.13 µg/mL
same,LD50 at 336 h,[9],> 5000 mg/kg
Cc1ncc([N+](=O)[O-])n1CCOCc1ccccc1Br,IC50,Pancreatic alpha-amylase,< 2.98 µM
Cc1ncc([N+](=O)[O-])n1CCOCc1ccc(Br)cc1,IC50,Pancreatic alpha-amylase,< 2.98 µM
Cc1cc(COCCn2c([N+](=O)[O-])cnc2C)ccc1[N+](=O)[O-],IC50,Pancreatic alpha-amylase,< 2.98 µM
Cc1ncc([N+](=O)[O-])n1CCOc1ccc(/C=N\c2ccc(S(=O)(=O)Nc3nccs3)cc2)cc1,IC50,Carbonic anhydrase 2,0.016 µM
same,IC50,Carbonic anhydrase 9,0.093 µM
Cc1cc(C)nc(NS(=O)(=O)c2ccc(/N=C/c3ccc(C(=O)OCCn4c([N+](=O)[O-])cnc4C)cc3)cc2)n1,MIC,Staphylococcus aureus [2],3.13 µg/mL
same,LD50 at 336 h,[3],> 5000 mg/kg
same,IC50,[4],2.69 µM
same,MIC,Pseudomonas aeruginosa [5],3.13 µg/mL
same,MIC,Bacillus spizizenii [6],1.56 µg/mL
same,LD50 at 336 h,[7],> 5000 mg/kg
same,MIC,Escherichia coli [8],1.56 µg/mL
same,LD50 at 336 h,[9],> 5000 mg/kg
Cc1cc(NNS(=O)(=O)c2ccc(/N=C\c3ccc(OCCn4c([N+](=O)[O-])cnc4C)cc3)cc2)no1,IC50,Carbonic anhydrase 2,0.033 µM
same,IC50,Carbonic anhydrase 9,0.112 µM
Cc1ncc([N+](=O)[O-])n1CCn1c(-c2ccncc2)nn(-c2ccccc2)c1=S,IC50,Giardia intestinalis [1],0.76 µM
same,MIC,Clostridium sporogenes,29.9 µM
same,IC50,Entamoeba histolytica,3.27 µM
CC1(C)S[C@@H]2[C@H](NC(=O)[C@H](N)c3ccccc3)C(=O)N2[C@H]1C(=O)O [AMPICILLIN],MIC,Staphylococcus aureus [10],0.036 µM
same,MIC,Escherichia coli [11],2.3 µM
NC[C@H]1O[C@H](O[C@H]2[C@H](O)[C@@H](O[C@H]3O[C@H](CO)[C@@H](O)[C@H](N)[C@H]3O)[C@H](N)C[C@@H]2N)[C@H](N)[C@@H](O)[C@@H]1O [BEKANAMYCIN],MIC,Staphylococcus aureus [2],1.56 µg/mL
same,MIC,Pseudomonas aeruginosa [5],3.13 µg/mL
same,MIC,Bacillus spizizenii [6],0.78 µg/mL
same,MIC,Escherichia coli [8],1.56 µg/mL
O=C(N[C@H](CO)[C@H](O)c1ccc([N+](=O)[O-])cc1)C(Cl)Cl [CHLORAMPHENICOL],MIC,Bacillus spizizenii [12],3.91 µg/mL
same,MIC,Pseudomonas aeruginosa [13],0.98 µg/mL
same,MIC,Staphylococcus aureus [14],3.91 µg/mL
same,MIC,Escherichia coli [15],3.91 µg/mL
CC1(C)S[C@@H]2[C@H](NC(=O)Cc3ccccc3)C(=O)N2[C@H]1C(=O)O [PENICILLIN G],MIC,Staphylococcus aureus [2],6.25 µg/mL
same,MIC,Bacillus spizizenii [12],0.98 µg/mL
same,MIC,Pseudomonas aeruginosa [5],6.25 µg/mL
same,MIC,Bacillus spizizenii [6],1.56 µg/mL
same,MIC,Escherichia coli [8],3.13 µg/mL
same,MIC,Pseudomonas aeruginosa [13],7.82 µg/mL
same,MIC,Staphylococcus aureus [14],1.96 µg/mL
same,MIC,Escherichia coli [15],7.82 µg/mL
CC1=CC(=O)c2c(O)cccc2C1=O [PLUMBAGIN],IC50,MDA-MB-231,4.4 µM
Cc1ncc([N+](=O)[O-])n1CC(C)O (stereo not given) [SECNIDAZOLE],selectivity ratio,[16],> 24
same,IC50,Trichomonas vaginalis,13.5 µM
same,selectivity ratio,[17],> 7
same,IC50,Giardia intestinalis [18],4.41 µM
C[C@@H]1CCN(C(=O)CC#N)C[C@@H]1N(C)c1ncnc2[nH]ccc12 [TOFACITINIB],IC50,HeLa,0.04 µM
same,IC50,A549,0.1 µM
same,IC50,U-251,0.33 µM
same,IC50,HepG2,0.11 µM
